Patent US11773086B2, “Fungal modulators” (TRUSTEES OF BOSTON UNIVERSITY, priority 2020, dated 2023)

Test system: FLC-resistant Candida auris
Test: Checkerboard (dose-response matrix) with fluconazole, FICI
Assay type: cell-based
Conditions: fractional inhibitory concentration index for enhancement of FLC activity in FLC-resistant Candida auris; <0.5 strong synergy, 2 = no synergy
Protocol: Generally, the synergy is measured by determining the fractional inhibitory concentration (FIC) value of the combination. […] FIC values for both agents in a particular square/well are calculated in this way followed by determination of the FIC index (sum of the FICs of each agent in the particular square/well).
Compound potency was assessed alone by dose response assays or in combination with another compound by dose-response matrixes in 96-well plates, or 384-well, flat-bottom, microtiter plates (Corning) as previously described. Plates were incubated at 30° C. for the indicated time period. Growth was quantified by measuring OD600 and corrected for medium background. All strains were assessed in biological duplicate experiments with technical duplicates. Growth was normalized to untreated controls and plotted as a heat map using Java TreeView 1.1.6r4. For dose-response matrixes fractional inhibitory concentration index at 90% growth inhibition (FICI90) was calculated as previously described. The fluconazole Etest susceptibility assay was performed as previously described. Briefly, 200 μL of 5×10^6 cells/mL were plated on YPD agar (1%) plates with either with 50 μM azoffluxin or containing DMSO.

SMILES | FICI
CC(C)C[C@@H](O)COc1cc2c(cc1C1(c3cc4c(cc3OC[C@H](O)CC(C)C)OCO4)C(=O)Nc3ccc(Br)cc31)OCO2 [CMLD013650, 5-bromo-3,3-bis(6-(((2R)-2-hydroxy-4-methylpentyl)oxy)-2H-1,3-benzodioxol-5-yl)-2,3-dihydro-1H-indol-2-one] | 0.300
C=CCC[C@@H](O)COc1cc2c(cc1C1(c3cc4c(cc3OC[C@H](O)CCC=C)OCO4)C(=O)Nc3cc(F)ccc31)OCO2 [CMLD012447, 6-fluoro-3,3-bis(6-(((R)-2-hydroxyhex-5-en-1-yl)oxy)benzo[d][1,3]dioxol-5-yl)indolin-2-one] | 0.130
CCC[C@@H](O)COc1cc2c(cc1C1(c3cc4c(cc3OC[C@H](O)CCC)OCO4)C(=O)Nc3ccc(F)cc31)OCO2 [CMLD013619, 5-fluoro-3,3-bis(6-(((R)-2-hydroxypentyl)oxy)benzo[d][1,3]dioxol-5-yl)indolin-2-one] | 0.255
CC(C)(C)C[C@@H](O)COc1cc2c(cc1C1(c3cc4c(cc3OC[C@H](O)CC(C)(C)C)OCO4)C(=O)Nc3ccc(F)cc31)OCO2 [CMLD012444, 5-fluoro-3,3-bis(6-(((R)-2-hydroxy-4,4-dimethylpentyl)oxy)benzo[d][1,3]dioxol-5-yl)indolin-2-one] | 0.068
CC(C)C[C@@H](O)COc1cc2c(cc1C1(c3cc4c(cc3OC[C@H](O)CC(C)C)OCO4)C(=O)Nc3cc(F)ccc31)OCO2 [CMLD012393, 6-fluoro-3,3-bis(6-(((R)-2-hydroxy-4-methylpentyl)oxy)benzo[d][1,3]dioxol-5-yl)indolin-2-one] | 0.130
CC[C@@H](O)COc1cc2c(cc1C1(c3cc4c(cc3OC[C@H](O)CC)OCO4)C(=O)Nc3c(F)cccc31)OCO2 [CMLD012399, 7-fluoro-3,3-bis(6-((R)-2-hydroxybutoxy)benzo[d][1,3]dioxol-5-yl)indolin-2-one] | 0.500
CC(C)C[C@@H](O)COc1cc2c(cc1C1(c3cc4c(cc3OC[C@H](O)CC(C)C)OCO4)C(=O)Nc3cc(Br)ccc31)OCO2 [CMLD013651, 6-bromo-3,3-bis(6-(((2R)-2-hydroxy-4-methylpentyl)oxy)-2H-1,3-benzodioxol-5-yl)-2,3-dihydro-1H-indol-2-one] | 0.130
CC(C)(C)C[C@@H](O)COc1cc2c(cc1C1(c3cc4c(cc3OC[C@H](O)CC(C)(C)C)OCO4)C(=O)Nc3c(F)cccc31)OCO2 [CMLD013624, 7-fluoro-3,3-bis(6-(((R)-2-hydroxy-4,4-dimethylpentyl)oxy)benzo[d][1,3]dioxol-5-yl)indolin-2-one] | 0.068
CC(C)(C)C[C@@H](O)COc1cc2c(cc1C1(c3cc4c(cc3OC[C@H](O)CC(C)(C)C)OCO4)C(=O)Nc3cc(Br)ccc31)OCO2 [CMLD012446, 6-bromo-3,3-bis(6-(((R)-2-hydroxy-4,4-dimethylpentyl)oxy)benzo[d][1,3]dioxol-5-yl)indolin-2-one] | 0.068
CCC[C@@H](O)COc1cc2c(cc1C1(c3cc4c(cc3OC[C@H](O)CCC)OCO4)C(=O)Nc3c(F)cccc31)OCO2 [CMLD012440, 7-fluoro-3,3-bis(6-(((R)-2-hydroxypentyl)oxy)benzo[d][1,3]dioxol-5-yl)indolin-2-one] | 0.058
CC(C)C[C@@H](O)COc1cc2c(cc1C1(c3cc4c(cc3OC[C@H](O)CC(C)C)OCO4)C(=O)Nc3ccc(F)cc31)OCO2 [CMLD013622, 5-fluoro-3,3-bis(6-(((R)-2-hydroxy-4-methylpentyl)oxy)benzo[d][1,3]dioxol-5-yl)indolin-2-one] | 0.130
C=CC[C@@H](O)COc1cc2c(cc1C1(c3cc4c(cc3OC[C@H](O)CC=C)OCO4)C(=O)Nc3c(F)cccc31)OCO2 [CMLD012402, 7-fluoro-3,3-bis(6-(((R)-2-hydroxypent-4-en-1-yl)oxy)benzo[d][1,3]dioxol-5-yl)indolin-2-one] | 0.113
